Consider 16 compounds from patent publication US9120812B2, “Pyrimidooxazocine derivatives as mTOR-inhibitors” (SANOFI, priority 2012, dated 2015).

Structures are written as SMILES.

In test [1] the target is mTOR (human recombinant aa mTOR 1360-2549) (Homo sapiens (Human), UniProt P42345). Put plainly: mTOR enzymatic test by TR-FRET (phosphorylation of GFP-4EBP1). Format: biochemical. The procedure, abridged:
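After a 30 min room-temperature kinase reaction, EDTA (10 mM final) and Tb-labelled phospho-Thr46 antibody (2 nM final) were added and incubated 60 min. Energy transfer from Tb to phosphorylated GFP-4EBP1 was read at 340 nm excitation, emissions 490/520 nm. Values derive from the 520/490 fluorescence ratio.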

For a further test, the target named is PI3Kα (p110α/p85α) (Homo sapiens (Human), UniProt P42336). Put plainly: PI3Kα enzymatic test by measuring the consumption of ATP. Format: biochemical. The procedure, abridged:
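ATP consumption read out by KinaseGlo luminescence after a 90 min reaction of 1.7 μg/ml PI3Kα (p110α/p85α) with 2 μM ATP and 50 μM PIP2, buffered at pH 7.5 (Tris, 10 mM MgCl2, 1 mM EGTA, 0.03% Chaps, 1 mM DTT). Threefold dilution series over ≥10 000-fold range yield IC50.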

The subject of the next test is U87MG tumour cells. Put plainly: Test of in vitro proliferation of U87MG tumour cells. It counts as cell-based. Particulars: Homo sapiens, U-87 MG, 72 h, U87MG cells, 72 hours; read-out: U87 Cell Proliferation IC50. The procedure:
Model 4: Test of in vitro Proliferation of U87MG Tumour Cells.
The cell growth is determined with the reagent CellTiter 96 AQueous One Solution Cell Proliferation Assay from Promega (Cat. No. G3581).

Another test has as its system Akt-pS473 in U87MG cells. The settings on record: Homo sapiens, U-87 MG, read-out: U87 Akt-pS473 % Inhibition or IC50, nM (IC50), U87MG cells.

PI3Kα (p110α/p85α), sequence (P42336 whole entry): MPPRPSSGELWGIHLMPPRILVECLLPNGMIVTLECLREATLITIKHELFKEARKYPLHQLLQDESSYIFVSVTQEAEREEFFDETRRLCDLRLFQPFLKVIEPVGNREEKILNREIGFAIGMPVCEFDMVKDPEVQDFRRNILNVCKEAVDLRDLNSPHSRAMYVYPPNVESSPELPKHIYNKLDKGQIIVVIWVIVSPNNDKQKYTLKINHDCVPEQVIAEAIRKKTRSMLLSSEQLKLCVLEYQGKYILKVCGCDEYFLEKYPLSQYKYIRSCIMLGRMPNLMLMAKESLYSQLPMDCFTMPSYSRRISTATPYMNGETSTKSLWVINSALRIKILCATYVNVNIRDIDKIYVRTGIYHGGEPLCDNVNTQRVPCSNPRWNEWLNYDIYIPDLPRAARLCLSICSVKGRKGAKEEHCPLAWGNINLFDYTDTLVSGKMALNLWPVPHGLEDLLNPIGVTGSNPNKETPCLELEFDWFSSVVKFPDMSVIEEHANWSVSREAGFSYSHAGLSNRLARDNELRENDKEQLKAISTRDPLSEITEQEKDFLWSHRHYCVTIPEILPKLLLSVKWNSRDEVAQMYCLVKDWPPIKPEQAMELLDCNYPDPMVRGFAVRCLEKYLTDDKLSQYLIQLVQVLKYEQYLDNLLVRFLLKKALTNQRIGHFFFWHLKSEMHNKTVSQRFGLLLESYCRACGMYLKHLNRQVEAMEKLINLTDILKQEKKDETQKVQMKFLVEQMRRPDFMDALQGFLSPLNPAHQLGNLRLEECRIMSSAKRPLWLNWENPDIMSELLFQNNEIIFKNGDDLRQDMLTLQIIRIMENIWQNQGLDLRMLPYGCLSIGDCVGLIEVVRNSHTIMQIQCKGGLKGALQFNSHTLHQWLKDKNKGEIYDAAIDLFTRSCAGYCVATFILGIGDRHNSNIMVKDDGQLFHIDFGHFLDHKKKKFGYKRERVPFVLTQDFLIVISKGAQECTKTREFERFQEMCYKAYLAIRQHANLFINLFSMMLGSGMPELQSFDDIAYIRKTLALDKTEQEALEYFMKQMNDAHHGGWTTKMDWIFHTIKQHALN
PI3Kα (p110α/p85α), sequence (P27986 whole entry partner): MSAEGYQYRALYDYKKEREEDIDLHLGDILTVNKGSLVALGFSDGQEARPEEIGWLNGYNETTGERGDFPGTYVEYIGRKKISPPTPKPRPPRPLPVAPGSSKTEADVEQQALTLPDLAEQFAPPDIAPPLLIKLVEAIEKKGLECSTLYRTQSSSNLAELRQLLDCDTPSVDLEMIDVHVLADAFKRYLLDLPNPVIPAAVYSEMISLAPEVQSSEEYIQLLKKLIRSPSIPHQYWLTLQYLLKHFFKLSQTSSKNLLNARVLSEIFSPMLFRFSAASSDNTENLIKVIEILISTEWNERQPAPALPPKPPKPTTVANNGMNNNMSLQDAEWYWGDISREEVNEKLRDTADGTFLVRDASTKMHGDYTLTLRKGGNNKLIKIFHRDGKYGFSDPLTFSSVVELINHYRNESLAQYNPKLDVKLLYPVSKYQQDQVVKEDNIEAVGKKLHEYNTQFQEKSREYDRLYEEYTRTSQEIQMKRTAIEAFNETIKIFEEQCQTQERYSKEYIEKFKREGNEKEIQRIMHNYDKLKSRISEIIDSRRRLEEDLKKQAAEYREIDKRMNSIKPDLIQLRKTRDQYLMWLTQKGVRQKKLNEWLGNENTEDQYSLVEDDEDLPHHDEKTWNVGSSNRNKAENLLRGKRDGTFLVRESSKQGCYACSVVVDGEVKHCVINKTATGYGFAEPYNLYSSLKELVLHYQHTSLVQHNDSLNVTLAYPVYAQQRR
mTOR (human recombinant aa mTOR 1360-2549), sequence (P42345 1360-2549): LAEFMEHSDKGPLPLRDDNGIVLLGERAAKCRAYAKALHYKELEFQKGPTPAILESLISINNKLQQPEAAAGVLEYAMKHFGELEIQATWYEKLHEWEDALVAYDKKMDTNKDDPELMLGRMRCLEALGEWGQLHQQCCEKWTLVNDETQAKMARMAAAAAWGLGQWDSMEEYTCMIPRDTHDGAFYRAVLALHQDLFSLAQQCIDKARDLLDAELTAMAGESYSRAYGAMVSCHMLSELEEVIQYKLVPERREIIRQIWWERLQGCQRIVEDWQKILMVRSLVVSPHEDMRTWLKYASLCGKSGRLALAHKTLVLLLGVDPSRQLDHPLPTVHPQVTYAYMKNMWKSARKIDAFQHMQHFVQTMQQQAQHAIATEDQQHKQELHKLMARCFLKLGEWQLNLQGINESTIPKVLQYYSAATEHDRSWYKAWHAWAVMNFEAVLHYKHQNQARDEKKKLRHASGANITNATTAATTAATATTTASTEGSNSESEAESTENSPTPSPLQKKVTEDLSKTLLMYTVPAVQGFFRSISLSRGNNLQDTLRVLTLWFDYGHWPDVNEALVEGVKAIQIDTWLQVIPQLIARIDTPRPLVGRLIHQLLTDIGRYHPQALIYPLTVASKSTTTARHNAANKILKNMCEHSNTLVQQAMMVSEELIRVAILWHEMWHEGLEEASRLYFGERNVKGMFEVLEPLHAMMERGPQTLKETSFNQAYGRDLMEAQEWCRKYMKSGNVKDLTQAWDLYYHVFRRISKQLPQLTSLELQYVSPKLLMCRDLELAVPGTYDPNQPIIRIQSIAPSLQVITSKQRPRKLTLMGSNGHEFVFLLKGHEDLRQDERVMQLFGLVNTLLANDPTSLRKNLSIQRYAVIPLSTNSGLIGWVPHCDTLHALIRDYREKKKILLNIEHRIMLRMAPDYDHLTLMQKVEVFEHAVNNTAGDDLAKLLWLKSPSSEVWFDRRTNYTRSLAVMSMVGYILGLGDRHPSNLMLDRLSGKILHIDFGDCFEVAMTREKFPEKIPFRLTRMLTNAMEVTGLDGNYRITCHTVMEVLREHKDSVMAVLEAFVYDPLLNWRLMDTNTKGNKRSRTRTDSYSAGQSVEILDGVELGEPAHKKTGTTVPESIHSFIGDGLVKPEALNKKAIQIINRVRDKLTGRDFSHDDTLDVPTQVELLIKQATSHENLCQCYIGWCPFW
Procedure for Akt-pS473 in U87MG cells: Model 3: Cellular Test of Phosphorylation of the Epitope S473 of the Akt Protein on the U87MG Line Via an ELISA Test
An electrochemiluminescence signal is generated by a ruthenium-labelled anti-rabbit antibody.
After culturing for 16-20 hours (the cells are at 100% of confluence) at 37° C. under 5% CO2, 1 μl of the chemical compounds in 100% DMSO (1% DMSO final concentration on the cells) is added. The cells are incubated with the compounds for 3 hours at 37° C. under 5% CO2.
The free sites are blocked with 150 μl/well of a buffer of 50 mM Tris pH 7.5, 0.15 M NaCl, 0.02% Tween 20, 3% BSA with stirring at 450 rpm for 1 hour at room temperature, followed by a step of washing with 3×300 μl of a buffer of 50 mM Tris pH 7.5, 0.15 M NaCl, 0.02% Tween 20.
15 μl of cell lysate are mixed with 15 μl of a 50 mM buffer of Tris pH 7.5, 0.15 M NaCl, 0.02% Tween 20, 1% BSA in a precoated ELISA plate (see above), and incubated for 1 hour at room temperature with stirring, followed by a step of washing with 3×300 μl of a buffer of 50 mM Tris pH 7.5, 0.15 M NaCl, 0.02% Tween 20. The pS473 epitope of Akt is detected with a rabbit polyclonal antibody (Cell Signaling, SC9271), diluted 100-fold in 50 mM Tris pH 7.5, 0.15 M NaCl, 0.02% Tween 20, 1% BSA, 25 μl/well (incubation for 1 hour at room temperature with stirring at 450 rpm).
After washing (see above), revelation is performed with a ruthenium-labelled anti-rabbit antibody (MSD R32AB1), diluted 3000-fold in a 50 mM buffer of Tris pH 7.5, 0.15 M NaCl, 0.02% Tween 20, 1% BSA, 25 μl/well, followed by incubation for 1 hour at room temperature with stirring at 450 rpm, and the plates are covered with aluminium.
After a further washing step, the plates are emptied and 150 μl of MSD Read Buffer T diluted fourfold with water are added. The electrochemiluminescence is measured on the MSD Sector Imager 6000.

Regarding `CCN1CC(C)(C)Oc2nc(N3CCOC[C@@H]3C)nc(-c3ccc(NC(=O)Nc4ccc(N5CCOCC5(C)C)nc4)c(F)c3)c2C1=O` [Example 256, 1-[6-(3,3-Dimethylmorpholin-4-yl)pyridin-3-yl]-3-{4-[6-ethyl-8,8-dimethyl-2-((S)-3-methylmorpholin-4-yl)-5-oxo-5,6,7,8-tetrahydro-9-oxa-1,3,6-triazabenzocyclohepten-4-yl]-2-fluorophenyl}urea], the IC50 in test [1] stood at 196 nM; with U87MG tumour cells it was 83 nM; in the test on Akt-pS473 in U87MG cells it was 42 nM. Besides, the “PI3Ka IC50” value on PI3Kα (p110α/p85α) is 199 nM.

On to `CCN1CC(C)(C)Oc2nc(N3CC4CCC(C3)O4)nc(-c3ccc(NC(=O)Nc4ccc(N5CCOCC5)nc4)c(F)c3)c2C1=O` [Example 200, 1-{4-[6-Ethyl-8,8-dimethyl-2-(8-oxa-3-azabicyclo[3.2.1]oct-3-yl)-5-oxo-5,6,7,8-tetrahydro-9-oxa-1,3,6-triazabenzocyclohepten-4-yl]-2-fluorophenyl}-3-(6-morpholin-4-ylpyridin-3-yl)urea], for which the IC50 in test [1] is 52 nM; in the test with U87MG tumour cells it was 108 nM; in the test with Akt-pS473 in U87MG cells, 9 nM. For the same compound, on PI3Kα (p110α/p85α), the “PI3Ka IC50” value is listed as greater than 10000 nM.

Consider `CCN1CC(C)(C)Oc2nc(N3CC4CCC(C3)O4)nc(-c3ccc(NC(=O)Nc4ccc(N5CCN(C(=O)OC)CC5)nc4)c(F)c3)c2C1=O` [Example 81, 4-[5-(3-{4-[6-Ethyl-8,8-dimethyl-2-(8-oxa-3-azabicyclo[3.2.1]oct-3-yl)-5-oxo-5,6,7,8-tetrahydro-9-oxa-1,3,6-triazabenzocyclohepten-4-yl]-2-fluorophenyl}ureido)pyridin-2-yl]piperazine-1-carboxylic acid methyl ester], for which the IC50 in test [1] is 124 nM; in the test on U87MG tumour cells, 108 nM; with Akt-pS473 in U87MG cells, 17 nM. Besides, the “PI3Ka IC50” value at PI3Kα (p110α/p85α) was 2100 nM.

With `CCNC(=O)Nc1ccc(-c2nc(N3CC4CCC(C3)O4)nc3c2C(=O)N(CCOC)CC(C)(C)O3)cc1F` [Example 211, 1-Ethyl-3-{2-fluoro-4-[6-(2-methoxyethyl)-8,8-dimethyl-2-(8-oxa-3-azabicyclo[3.2.1]oct-3-yl)-5-oxo-5,6,7,8-tetrahydro-9-oxa-1,3,6-triazabenzocyclohepten-4-yl]phenyl}urea], the values for the IC50 (in test [1]; in the test on U87MG tumour cells; in the test with Akt-pS473 in U87MG cells) were 87 nM, 894 nM and 270 nM, respectively. Besides, the “PI3Ka IC50” value at PI3Kα (p110α/p85α) is recorded as greater than 10000 nM.

Regarding `CCN1CC(C)(C)Oc2nc(N3CCOC[C@@H]3C)nc(-c3ccc(NC(=O)Nc4ccc(C(=O)N(C)CCN(C)C)cc4)cc3)c2C1=O` [Example 215, N-(2-Dimethylamino-ethyl)-4-(3-{4-[6-ethyl-8,8-dimethyl-2-((S)-3-methylmorpholin-4-yl)-5-oxo-5,6,7,8-tetrahydro-9-oxa-1,3,6-triazabenzocyclohepten-4-yl]phenyl}ureido)-N-methylbenzamide], the results for the IC50 (in test [1]; with U87MG tumour cells; in the test with Akt-pS473 in U87MG cells) were 48 nM, 32 nM and 33 nM, respectively. For the same compound, the “PI3Ka IC50” value on PI3Kα (p110α/p85α) came to 37 nM.

Consider `COCCN1CC(C)(C)Oc2nc(N3CC4CCC(C3)O4)nc(-c3ccc(NC(=O)Nc4ccc(F)cc4F)cc3)c2C1=O` [Example 162, 1-(2,4-Difluorophenyl)-3-{4-[6-(2-methoxyethyl)-8,8-dimethyl-2-(8-oxa-3-azabicyclo[3.2.1]oct-3-yl)-5-oxo-5,6,7,8-tetrahydro-9-oxa-1,3,6-triazabenzocyclohepten-4-yl]phenyl}urea], for which the IC50 in test [1] was found to be 147 nM; in the test with U87MG tumour cells it was 486 nM; in the test with Akt-pS473 in U87MG cells, 110 nM. Besides, at PI3Kα (p110α/p85α), the “PI3Ka IC50” value is recorded as greater than 10000 nM.

For `CCN1CC(C)(C)Oc2nc(N3CCOC[C@@H]3C)nc(-c3ccc(NC(=O)Nc4cnccn4)c(F)c3)c2C1=O` [Example 160, 1-{4-[6-Ethyl-8,8-dimethyl-2-((S)-3-methylmorpholin-4-yl)-5-oxo-5,6,7,8-tetrahydro-9-oxa-1,3,6-triazabenzocyclohepten-4-yl]-2-fluorophenyl}-3-pyrazin-2-ylurea], the IC50 in test [1] turned out to be 41 nM; in the test with U87MG tumour cells, 744 nM; with Akt-pS473 in U87MG cells it was 114 nM. For the same compound, at PI3Kα (p110α/p85α), the “PI3Ka IC50” value was 4900 nM.

As to `CCN1CC(C)(C)Oc2nc(N3CC4CCC(C3)O4)nc(-c3ccc(NC(=O)Nc4ccon4)c(F)c3)c2C1=O` [Example 135, 1-{4-[6-Ethyl-8,8-dimethyl-2-(8-oxa-3-azabicyclo[3.2.1]oct-3-yl)-5-oxo-5,6,7,8-tetrahydro-9-oxa-1,3,6-triazabenzocyclohepten-4-yl]-2-fluorophenyl}-3-isoxazol-3-ylurea], the IC50 in test [1] was determined as 11 nM; in the test on U87MG tumour cells, 112 nM; in the test on Akt-pS473 in U87MG cells, 26 nM. In addition, the “PI3Ka IC50” value at PI3Kα (p110α/p85α) worked out at 6525 nM.

For the compound `CCN1CC(C)(C)Oc2nc(N3C4CCC3COC4)nc(-c3ccc(NC(=O)Nc4ccncn4)cc3)c2C1=O` [Example 92, 1-{4-[6-Ethyl-8,8-dimethyl-2-(3-oxa-8-azabicyclo[3.2.1]oct-8-yl)-5-oxo-5,6,7,8-tetrahydro-9-oxa-1,3,6-triazabenzocyclohepten-4-yl]phenyl}-3-pyrimidin-4-ylurea], the results for the IC50 (in test [1]; with U87MG tumour cells; with Akt-pS473 in U87MG cells) were 40 nM, 99 nM and 12 nM, respectively. For the same compound, the “PI3Ka IC50” value at PI3Kα (p110α/p85α) is greater than 10000 nM.

Take `CCN1CC(C)(C)Oc2nc(N3CC4CCC(C3)O4)nc(-c3ccc(NC(=O)NCCF)cc3)c2C1=O` [Example 123, 1-{4-[6-Ethyl-8,8-dimethyl-2-(8-oxa-3-azabicyclo[3.2.1]oct-3-yl)-5-oxo-5,6,7,8-tetrahydro-9-oxa-1,3,6-triazabenzocyclohepten-4-yl]phenyl}-3-(2-fluoroethyl)urea]: the results for the IC50 (in test [1]; with U87MG tumour cells; in the test on Akt-pS473 in U87MG cells) were 22 nM, 221 nM and 150 nM, respectively. On PI3Kα (p110α/p85α), the “PI3Ka IC50” value is 3627 nM.

As for `CCN1CC(C)(C)Oc2nc(N3CC4CCC(C3)O4)nc(-c3ccc(NC(=O)NCC4CCS(=O)(=O)C4)c(F)c3)c2C1=O` (stereo not shown) [Example 129, 1-(1,1-Dioxotetrahydro-1λ6-thiophen-3-ylmethyl)-3-{4-[6-ethyl-8,8-dimethyl-2-(8-oxa-3-azabicyclo[3.2.1]oct-3-yl)-5-oxo-5,6,7,8-tetrahydro-9-oxa-1,3,6-triazabenzocyclohepten-4-yl]-2-fluorophenyl}urea], the IC50 in test [1] is 1380 nM; with U87MG tumour cells it was greater than 10000 nM; in the test with Akt-pS473 in U87MG cells, greater than 3000 nM. Further, the “PI3Ka IC50” value on PI3Kα (p110α/p85α) is greater than 10000 nM.

With `CCNC(=O)Nc1ccc(-c2nc(N3CC4CCC(C3)O4)nc3c2C(=O)N(CCC(=O)N(C)C)CC(C)(C)O3)cc1` [Example 8, 3-[4-[4-(3-ethylureido)phenyl]-8,8-dimethyl-2-(8-oxa-3-azabicyclo[3.2.1]oct-3-yl)-5-oxo-7,8-dihydro-5H-9-oxa-1,3,6-triazabenzocyclohepten-6-yl]-N,N-dimethylpropionamide], the values for the IC50 (in test [1]; with U87MG tumour cells; in the test on Akt-pS473 in U87MG cells) were 44 nM, 3810 nM and 537 nM, respectively. For the same compound, at PI3Kα (p110α/p85α), the “PI3Ka IC50” value is greater than 10000 nM.

Take `CCN1CC(C)(C)Oc2nc(N3CC4CCC(C3)O4)nc(-c3ccc(NC(=O)Nc4ccc(C(F)(F)F)cc4F)cc3)c2C1=O` [Example 154, 1-{4-[6-Ethyl-8,8-dimethyl-2-(8-oxa-3-azabicyclo[3.2.1]oct-3-yl)-5-oxo-5,6,7,8-tetrahydro-9-oxa-1,3,6-triazabenzocyclohepten-4-yl]phenyl}-3-(2-fluoro-4-trifluoromethylphenyl)urea]: the IC50 was determined as 182 nM in test [1], 97 nM in the test with U87MG tumour cells and 54 nM in the test with Akt-pS473 in U87MG cells. Also, the “PI3Ka IC50” value on PI3Kα (p110α/p85α) was greater than 10000 nM.

Take `CCN1CC(C)(C)Oc2nc(N3C4CCC3COC4)nc(-c3ccc(NC(=O)Nc4ccc(N5CCOCC5(C)C)nc4)c(F)c3)c2C1=O` [Example 257, 1-[6-(3,3-Dimethylmorpholin-4-yl)pyridin-3-yl]-3-{4-[6-ethyl-8,8-dimethyl-2-(3-oxa-8-azabicyclo[3.2.1]oct-8-yl)-5-oxo-5,6,7,8-tetrahydro-9-oxa-1,3,6-triazabenzocyclohepten-4-yl]-2-fluorophenyl}urea]: the IC50 came to 142 nM in test [1], 63 nM with U87MG tumour cells and 46 nM in the test with Akt-pS473 in U87MG cells. The “PI3Ka IC50” value at PI3Kα (p110α/p85α) is reported as greater than 10000 nM.

In the case of `CCN1CC(C)(C)Oc2nc(N3C4CCC3COC4)nc(-c3ccc(NC(=O)Nc4cc(C)nc(C)n4)cc3)c2C1=O` [Example 93, 1-(2,6-Dimethylpyrimidin-4-yl)-3-{4-[6-ethyl-8,8-dimethyl-2-(3-oxa-8-azabicyclo[3.2.1]oct-8-yl)-5-oxo-5,6,7,8-tetrahydro-9-oxa-1,3,6-triazabenzocyclohepten-4-yl]phenyl}urea], the IC50 came out at 72 nM in test [1], 410 nM in the test with U87MG tumour cells and 65 nM in the test with Akt-pS473 in U87MG cells. In addition, the “PI3Ka IC50” value on PI3Kα (p110α/p85α) is greater than 10000 nM.

For `CCN1CC(C)(C)Oc2nc(N3C4CCC3COC4)nc(-c3ccc(NC(=O)Nc4ccc(N5C[C@@H]6C[C@H]5CO6)nc4)c(F)c3)c2C1=O` [Example 253, 1-{4-[6-Ethyl-8,8-dimethyl-2-(3-oxa-8-azabicyclo[3.2.1]oct-8-yl)-5-oxo-5,6,7,8-tetrahydro-9-oxa-1,3,6-triazabenzocyclohepten-4-yl]-2-fluorophenyl}-3-[(1S,4S)-6-(2-oxa-5-azabicyclo[2.2.1]hept-5-yl)pyridin-3-yl]urea], the IC50 in test [1] turned out to be 72 nM; in the test with U87MG tumour cells, 167 nM; in the test on Akt-pS473 in U87MG cells it was 68 nM. The “PI3Ka IC50” value on PI3Kα (p110α/p85α) is listed as greater than 10000 nM.
